Data from patent publication US9884842B2, “Combretastatin analogs” (The Board of Trustees of the University of Arkansas, priority 2013, dated 2018).
Where two headings read alike, the source gives them in different places.

Key:
SF-295 = assay: NCI growth inhibition and cytotoxicity screen, CNS Cancer panel; format: cell-based; details: Homo sapiens; for CC50: read-out: LC50 (the source's name)
MDA-MB-468 = assay: cells; details: Homo sapiens; for GI50: MDA-MB-468; for CC50: MDA-MB-468, read-out: LC50
K-562 = assay: NCI growth inhibition and cytotoxicity screen, Leukemia panel; details: Homo sapiens; for GI50: K562; for CC50: K562, read-out: LC50
SR = assay: as above; details: Homo sapiens; for CC50: read-out: LC50
MALME-3M = assay: NCI growth inhibition and cytotoxicity screen, Melanoma panel; details: Homo sapiens; for CC50: read-out: LC50
MDA-MB-435 = assay: as above; details: Homo sapiens; for GI50: MDA-MB-435; for CC50: MDA-MB-435, read-out: LC50
SK-MEL-2 = assay: as above; details: Homo sapiens; for GI50: SK-MEL-2; for CC50: SK-MEL-2, read-out: LC50
SK-MEL-5 = assay: as above; details: Homo sapiens; for GI50: SK-MEL-5; for CC50: SK-MEL-5, read-out: LC50
UACC-257 = assay: as above; details: Homo sapiens; for CC50: UACC-257, read-out: LC50
UACC-62 = assay: as above; details: Homo sapiens; for GI50: UACC-62; for CC50: UACC-62, read-out: LC50
SF-268 = assay: NCI growth inhibition and cytotoxicity screen, CNS Cancer panel; details: Homo sapiens; for GI50: SF-268; for CC50: SF-268, read-out: LC50
U251 = assay: as above; details: Homo sapiens; for GI50: U-251; for CC50: U-251, read-out: LC50
NCI-H322M = assay: NCI growth inhibition and cytotoxicity screen, Lung Cancer panel; details: Homo sapiens; for CC50: read-out: LC50
NCI-H460 = assay: as above; details: Homo sapiens; for GI50: NCI-H460; for CC50: NCI-H460, read-out: LC50
HCT-15 = assay: NCI growth inhibition and cytotoxicity screen, Colon Cancer panel; details: Homo sapiens; for GI50: HCT-15; for CC50: HCT-15, read-out: LC50
HT29 = assay: as above; details: Homo sapiens; for GI50: HT-29; for CC50: HT-29, read-out: LC50
A498 = assay: NCI growth inhibition and cytotoxicity screen, Renal Cancer panel; details: Homo sapiens; for GI50: A498; for CC50: A498, read-out: LC50
ACHN = assay: as above; details: Homo sapiens; for CC50: read-out: LC50
CAKI-1 = assay: as above; details: Homo sapiens; for GI50: CAKI-1; for CC50: CAKI-1, read-out: LC50
RXF 393 = assay: as above; details: Homo sapiens; for GI50: RXF 393; for CC50: RXF 393, read-out: LC50
TK-10 = assay: as above; details: Homo sapiens; for GI50: TK-10; for CC50: TK-10, read-out: LC50
MCF7 = assay: NCI growth inhibition and cytotoxicity screen, Breast Cancer panel; details: Homo sapiens; for GI50: MCF7; for CC50: MCF7, read-out: LC50
MDA-MB-231/ATCC = assay: as above; details: Homo sapiens; for GI50: MDA-MB-231; for CC50: MDA-MB-231, read-out: LC50
OVCAR-4 = assay: NCI growth inhibition and cytotoxicity screen, Ovarian Cancer panel; details: Homo sapiens; for GI50: OVCAR-4; for CC50: OVCAR-4, read-out: LC50
OVCAR-5 = assay: as above; details: Homo sapiens; for GI50: OVCAR-5; for CC50: OVCAR-5, read-out: LC50
OVCAR-8 = assay: as above; details: Homo sapiens; for GI50: OVCAR-8; for CC50: OVCAR-8, read-out: LC50
DU-145 = assay: NCI growth inhibition and cytotoxicity screen, Prostate Cancer panel; details: Homo sapiens; for GI50: DU-145; for CC50: DU-145, read-out: LC50
[1] = system: full panel of 60 different cancer cell lines; assay: NCI five dose screen, full panel summary; format: cell-based, human; details: for GI50: Homo sapiens
[2] = SF-295, Table 1, cell line SF-2395 (CNS Cancer)
[3] = Table 2, cell line SF-295 (CNS Cancer)

## COc1cc(/C=C/c2nc3ccccc3s2)cc(OC)c1OC [Formula (I)(d)]
SF-295; [2]
  GI50: 0.07 nM
  CC50: > 100 µM
MDA-MB-468
  GI50: 0.82 nM
  CC50: > 100 µM
K-562
  GI50: 0.041 nM
  CC50: > 100 µM
SR
  GI50: 0.036 nM
  CC50: > 100 µM
MALME-3M
  GI50: 0.07 nM
  CC50: 51.6 µM
MDA-MB-435
  GI50: 0.024 nM
  CC50: 44.6 µM
SK-MEL-2
  GI50: 0.064 nM
  CC50: 64.2 µM
SK-MEL-5
  GI50: 0.047 nM
  CC50: 34 µM
UACC-257; UACC-257
  GI50: 15 nM
UACC-257
  CC50: > 100 µM
UACC-62
  GI50: 0.05 nM
  CC50: 55.9 µM
SF-268
  GI50: 0.00056 µM
  CC50: > 100 µM
U251
  GI50: 0.88 nM
  CC50: > 100 µM
NCI-H322M
  CC50: > 100 µM
NCI-H460
  GI50: 0.11 nM
  CC50: > 100 µM
HCT-15
  GI50: 0.063 nM
  CC50: > 100 µM
HT29
  GI50: 0.038 nM
  CC50: > 100 µM
A498
  GI50: 0.041 nM
  CC50: 35.8 µM
ACHN
  GI50: 1.22 nM
  CC50: > 100 µM
CAKI-1
  GI50: 0.14 nM
  CC50: > 100 µM
RXF 393
  GI50: 0.14 nM
  CC50: 97.6 µM
TK-10
  GI50: 11.1 nM
  CC50: > 100 µM
MCF7
  GI50: 0.31 nM
  CC50: 51.5 µM
MDA-MB-231/ATCC
  GI50: 0.71 nM
  CC50: > 100 µM
OVCAR-4
  GI50: 0.00181 µM
  CC50: > 100 µM
OVCAR-5
  GI50: 0.93 nM
  CC50: > 100 µM
OVCAR-8
  GI50: 0.39 nM
  CC50: > 100 µM
DU-145
  GI50: 0.27 nM
  CC50: > 100 µM

## COc1cc(/C(C#N)=C/c2cnc3ccccc3c2)cc(OC)c1OC [PNR-5-10, (Z)-3-(quinolin-3-yl)-2-(3,4,5-trimethoxyphenyl)acrylonitrile]
SF-295; [3]
  GI50: 556 nM
  CC50: > 100 µM
[1]; range over the potently inhibited cell lines, read-out: GI50 ranging (potently inhibited cancer cell lines)
  GI50: 227 to 911 nM
[1]; read-out: average GI50 value on all the cancer cell lines
  GI50: 2490 nM
[1]; share of the cancer cell lines potently inhibited
  potent growth inhibition on % of the cancer cell lines: 47%
MDA-MB-468
  GI50: 870 nM
  CC50: > 100 µM
K-562
  GI50: 444 nM
  CC50: > 100 µM
SR
  GI50: 569 nM
  CC50: > 100 µM
MALME-3M
  GI50: 691 nM
  CC50: > 100 µM
MDA-MB-435
  GI50: 227 nM
  CC50: > 100 µM
SK-MEL-2
  GI50: 1050 nM
  CC50: > 100 µM
SK-MEL-5
  GI50: 410 nM
  CC50: > 100 µM
UACC-257
  CC50: > 100 µM
UACC-62
  GI50: 478 nM
  CC50: > 100 µM
SF-268
  GI50: 9.17 µM
  CC50: > 100 µM
U251
  GI50: 1700 nM
  CC50: > 100 µM
NCI-H322M
  GI50: 27.4 µM
  CC50: > 100 µM
NCI-H460
  GI50: 2050 nM
  CC50: > 100 µM
HCT-15
  GI50: 1080 nM
  CC50: > 100 µM
HT29
  GI50: 421 nM
  CC50: > 100 µM
A498
  GI50: 678 nM
  CC50: > 100 µM
ACHN
  GI50: 911 nM
  CC50: > 100 µM
CAKI-1
  GI50: 346 nM
  CC50: > 100 µM
RXF 393
  GI50: 579 nM
  CC50: > 100 µM
TK-10
  GI50: 2550 nM
  CC50: > 100 µM
MCF7
  GI50: 429 nM
  CC50: > 100 µM
MDA-MB-231/ATCC
  GI50: 2830 nM
  CC50: > 100 µM
OVCAR-4
  GI50: 13.8 µM
  CC50: > 100 µM
OVCAR-5
  GI50: 3940 nM
  CC50: > 100 µM
OVCAR-8
  GI50: 3410 nM
  CC50: > 100 µM
DU-145
  GI50: 1510 nM
  CC50: > 100 µM
